Measurements taken from ChEMBL document CHEMBL4257451, “Synergism of fused bicyclic 2-aminothiazolyl compounds with polymyxin B against Klebsiella pneumoniae” (Medchemcomm, 2017).

Assays:
[1] = system: Klebsiella pneumoniae; assay: Synergistic antibacterial activity against Klebsiella pneumoniae SIPI-KPN-1712 assessed as fractional Inhibitory concentration index in presence of polymixin B at 2 ug/ml by broth microdilution method; format: functional
[2] = system: Klebsiella pneumoniae; assay: Growth inhibition of Klebsiella pneumoniae SIPI-KPN-1712 by broth microdilution method; format: organism-based; conditions: in vitro
[3] = system: Klebsiella pneumoniae; assay: Synergistic antibacterial activity against Klebsiella pneumoniae SIPI-KPN-1712 assessed as polymixin B MIC at 4 ug/ml by broth microdilution method (reference value: 32 ug/ml); format: functional

Compound	fractional inhibitory concentration index (FICI) [1]	MIC [2]	MIC [3]
COC1CCCc2nc(Nc3ccc4ccccc4c3)sc21 (stereo not given)	1.03	> 128 µg/mL	32 µg/mL
COC1CCCc2nc(Nc3ccc(Cl)cc3)sc21 (stereo not given)	0.06	> 128 µg/mL	1 µg/mL
Cc1ccc(Nc2nc3c(s2)C(O)CCC3)cc1 (stereo not given)	1.03	> 128 µg/mL	32 µg/mL
CCOC1CCCc2nc(Nc3ccc(Oc4ccccc4C)cc3)sc21 (stereo not given)	1.03	> 128 µg/mL	32 µg/mL
O=C(OC1CCCc2nc(Nc3ccc(Cl)cn3)sc21)n1ccnc1 (stereo not given)	0.53	> 128 µg/mL	16 µg/mL
CCOC1CCCc2nc(Nc3ccc(Br)cc3)sc21 (stereo not given)	0.09	> 128 µg/mL	2 µg/mL
CCCOC1CCCc2nc(Nc3ccc(F)cc3)sc21 (stereo not given)	0.53	> 128 µg/mL	16 µg/mL
COC1CCCc2nc(Nc3ccc(C(C)(C)C)cc3)sc21 (stereo not given)	0.53	> 128 µg/mL	16 µg/mL
CCCC(CCC)OC1CCCc2nc(Nc3ccc(Cl)cc3)sc21 (stereo not given)	0.16	> 128 µg/mL	4 µg/mL
O=C(OC1CCCc2nc(Nc3ccc(Cl)cc3)sc21)n1ccnc1 (stereo not given)	1.03	> 128 µg/mL	32 µg/mL
COCCOC1CCCc2nc(Nc3ccc(C)cc3)sc21 (stereo not given)	1.03	> 128 µg/mL	32 µg/mL
COC1CCCc2nc(Nc3cccc(Cl)c3)sc21 (stereo not given)	0.28	> 128 µg/mL	8 µg/mL
CCOC1CCCc2nc(Nc3ncccn3)sc21 (stereo not given)	0.53	> 128 µg/mL	16 µg/mL
CCCCOC1CCCc2nc(Nc3ccc(C)cc3)sc21 (stereo not given)	1.03	> 128 µg/mL	32 µg/mL
CCCOC1CCCc2nc(Nc3ccc(C)cc3)sc21 (stereo not given)	0.53	> 128 µg/mL	16 µg/mL
COC1CCCc2nc(Nc3cccc(C)c3C)sc21 (stereo not given)	1.03	> 128 µg/mL	32 µg/mL
COC1CCCc2nc(Nc3ccc(Oc4ccccc4C)cc3)sc21 (stereo not given)	0.53	> 128 µg/mL	16 µg/mL
OC1CCCc2nc(Nc3ccccc3)sc21 (stereo not given)	1.03	> 128 µg/mL	32 µg/mL
COC1CCCc2nc(Nc3ccc(C#N)c(C(F)(F)F)c3)sc21 (stereo not given)	0.53	> 128 µg/mL	16 µg/mL
OC1CCCc2nc(Nc3ccc(F)cc3)sc21 (stereo not given)	1.03	> 128 µg/mL	32 µg/mL
COC1CCCc2nc(Nc3ccccc3C)sc21 (stereo not given)	1.03	> 128 µg/mL	32 µg/mL
COC1CCCc2nc(Nc3ccc(N(C)C)cc3)sc21 (stereo not given)	0.53	> 128 µg/mL	16 µg/mL

Compound	fractional inhibitory concentration index (FICI) [1]	MIC [2]	MIC [3]
COC1CCCc2nc(Nc3ccc(C(F)(F)F)cc3Cl)sc21 (stereo not given)	0.16	> 128 µg/mL	4 µg/mL
Cc1ccc(Nc2nc3c(s2)C(OC(=O)n2ccnc2)CCC3)cc1 (stereo not given)	1.03	> 128 µg/mL	32 µg/mL
COC1CCCc2nc(Nc3nccs3)sc21 (stereo not given)	1.03	> 128 µg/mL	32 µg/mL
CC(=O)c1ccc(Nc2nc3c(s2)C(O)CCC3)cc1 (stereo not given)	0.53	> 128 µg/mL	16 µg/mL
COC1CCCc2nc(Nc3ncccn3)sc21 (stereo not given)	0.53	> 128 µg/mL	16 µg/mL
COC1CCCc2nc(Nc3ccc(C(C)=O)cc3)sc21 (stereo not given)	0.53	> 128 µg/mL	16 µg/mL
COC1CCCc2nc(Nc3ccc(I)cc3)sc21 (stereo not given)	0.53	> 128 µg/mL	16 µg/mL
COC1CCCc2nc(Nc3ccccc3)sc21 (stereo not given)	1.03	> 128 µg/mL	32 µg/mL
COC1CCCc2nc(NN3CCOCC3)sc21 (stereo not given)	0.53	> 128 µg/mL	16 µg/mL
COc1cc(Nc2nc3c(s2)C(OC)CCC3)cc(OC)c1OC (stereo not given)	0.53	> 128 µg/mL	16 µg/mL
CCOC1CCCc2nc(Nc3ccc(C)cc3)sc21 (stereo not given)	0.16	> 128 µg/mL	4 µg/mL
COc1ccc(Nc2nc3c(s2)C(OC)CCC3)cc1 (stereo not given)	0.53	> 128 µg/mL	16 µg/mL
CCOC1CCCc2nc(Nc3ccc4ccccc4n3)sc21 (stereo not given)	1.03	> 128 µg/mL	32 µg/mL
COC1CCCc2nc(Nc3ccc(Cl)cc3Cl)sc21 (stereo not given)	0.28	> 128 µg/mL	8 µg/mL
Clc1ccc(Nc2nc3ccc(Cl)cc3s2)cc1	1.03	> 128 µg/mL	32 µg/mL
COC1CCCc2nc(Nc3ccc(C#N)cc3)sc21 (stereo not given)	0.53	> 128 µg/mL	16 µg/mL
COC1CCCc2nc(Nc3ccnc(Cl)c3)sc21 (stereo not given)	0.16	> 128 µg/mL	4 µg/mL
FC(F)(F)c1ccc2nc(Nc3ccccc3)sc2c1	0.53	> 128 µg/mL	16 µg/mL
CCOC1CCCc2nc(Nc3ccc(Cl)cn3)sc21 (stereo not given)	0.53	> 128 µg/mL	16 µg/mL
COC1CCCc2nc(Nc3cccc(Br)c3)sc21 (stereo not given)	0.53	> 128 µg/mL	16 µg/mL
CCOC1CCCc2nc(Nc3ccc(Cl)cc3)sc21 (stereo not given)	0.06	> 128 µg/mL	1 µg/mL
COC1CCCc2nc(Nc3ccc(O)cc3)sc21 (stereo not given)	1.03	> 128 µg/mL	32 µg/mL

Compound	fractional inhibitory concentration index (FICI) [1]	MIC [2]	MIC [3]
COC1CCCc2nc(Nc3ccc(Oc4ccc(F)cc4)cc3)sc21 (stereo not given)	1.03	> 128 µg/mL	32 µg/mL
Cc1ccc(Nc2nc3c(s2)C(OC(C)C)CCC3)cc1 (stereo not given)	0.53	> 128 µg/mL	16 µg/mL
COC1CCCc2nc(Nc3ccc([N+](=O)[O-])cc3)sc21 (stereo not given)	0.53	> 128 µg/mL	16 µg/mL
CCCCOC1CCCc2nc(Nc3ccc(Cl)cc3)sc21 (stereo not given)	0.53	> 128 µg/mL	16 µg/mL
OC1CCCc2nc(Nc3ccc4ccccc4c3)sc21 (stereo not given)	0.53	> 128 µg/mL	16 µg/mL
OC1CCCc2nc(Nc3ccc(C(F)(F)F)cc3)sc21 (stereo not given)	0.53	> 128 µg/mL	16 µg/mL
COC1CCCc2nc(Nc3ccccc3Cl)sc21 (stereo not given)	1.03	> 128 µg/mL	32 µg/mL
Clc1ccc(Nc2nc3ccccc3s2)cc1	1.03	> 128 µg/mL	32 µg/mL
CC(C)OC1CCCc2nc(Nc3ccc(Cl)cc3)sc21 (stereo not given)	0.06	> 128 µg/mL	1 µg/mL
COC1CCCc2nc(Nc3ccc(Cl)cn3)sc21 (stereo not given)	0.53	> 128 µg/mL	16 µg/mL
COC1CCCc2nc(Nc3c(Cl)cccc3Cl)sc21 (stereo not given)	0.06	> 128 µg/mL	1 µg/mL
COC1CCCc2nc(Nc3ccc4ccccc4n3)sc21 (stereo not given)	1.03	> 128 µg/mL	32 µg/mL
COC1CCCc2nc(Nc3cccnc3)sc21 (stereo not given)	0.53	> 128 µg/mL	16 µg/mL
COC1CCCc2nc(Nc3cccc(F)c3)sc21 (stereo not given)	1.03	> 128 µg/mL	32 µg/mL
COC1CCCc2nc(Nc3ccc(NC(C)=O)cc3)sc21 (stereo not given)	1.03	> 128 µg/mL	32 µg/mL
O=C(OC1CCCc2nc(Nc3ccc(C(F)(F)F)cc3)sc21)n1ccnc1 (stereo not given)	0.53	> 128 µg/mL	16 µg/mL
O=C(OC1CCCc2nc(Nc3ccccc3)sc21)n1ccnc1 (stereo not given)	0.53	> 128 µg/mL	16 µg/mL
O=C(OC1CCCc2nc(Nc3ccc(F)cc3)sc21)n1ccnc1 (stereo not given)	1.03	> 128 µg/mL	32 µg/mL
COC1CCCc2nc(Nc3cccc(C(F)(F)F)c3)sc21 (stereo not given)	0.53	> 128 µg/mL	16 µg/mL
CCc1ccc(Nc2nc3c(s2)C(OC)CCC3)cc1 (stereo not given)	1.03	> 128 µg/mL	32 µg/mL
CCOC1CCCc2nc(Nc3ccc(F)cc3)sc21 (stereo not given)	0.53	> 128 µg/mL	16 µg/mL
